The values below come from article PMC10707468, “Pharmacokinetics of Novel Dopamine Transporter Inhibitor CE-123 and Modafinil with a Focus on Central Nervous System Distribution” (International Journal of Molecular Sciences, 2023).

The Ki is a dissociation constant, usually derived from enzyme kinetics or from competition with a known ligand. By inhibition is commonly meant the drop in the measured response relative to a control, in per cent.

The nature of data set [1]: In vitro plasma stability assay. The format is in vitro ADME. As to conditions: rat plasma. As to the method: In vitro plasma stability assay was used in the scope of the validation studies. Briefly, 40 μL of blank rat plasma or blank rat plasma containing 10% DMF as an inhibitor was first pre-warmed for 5 min at 37 °C using a Thermomixer® comfort (Eppendorf, Hamburg, Germany). […] The reaction was terminated after 0, 1, 2, and 4 h, via the addition of 50 μL of ice-cold ACN containing the IS solution. The samples were centrifuged for 10 min at 3000× g at 4 °C. The supernatant of all samples was diluted with 0.1% FA in water, 1:2 (v:v), and 10 µL of the sample was injected onto the LC–HRMS system.

The next data set concerns CYP3A. The experiment in a line: CYP P450 inhibition in HLMs (Eurofins Panlabs). It is filed as in vitro ADME, human. To be noted: S-CE-123 10 µM. As for the experimental part:
(§1) In vitro metabolism assays for the cytochrome (CYP) P450 inhibition of S-CE-123 was outsourced to Eurofins Panlabs (St. Charles, MO, USA, study number 100050638). Briefly, 0.1 mg/mL of the HLMs was incubated for 10 min at 37 °C with substrate (10 µM phenacetin for CYP1A, 100 µM bupropion for CYP2B6, 10 µM amodiaquine for CYP2C8, 10 µM diclofenac for CYP2C9, 0.5 µM omeprazole for CYP2C19, 5 µM dextromethorphan for CYP2D6, 5 µM midazolam for CYP3A, and 50 µM testosterone for CYP3A4) in the presence/absence of S-CE-123 (10 µM). The peak areas corresponding to the metabolite of each substrate were recorded. The percent of control activity was then calculated by comparing the peak area obtained in the presence of the test compound to that obtained in the absence of the test compound. Subsequently, the percent inhibition was calculated by subtracting the percent control activity from 100 for each compound. The IC50 values (concentration causing a half-maximal inhibition of control values) were determined using non-linear regression analysis of the concentration–response curve using Hill equation curve fitting.

For another data set, the system named is SERT. Details: method as in PMID 29410048. To be noted: cited from earlier work.
In a further data set the target is human DAT. To be noted: cell lines expressing human DAT; read-out: Inhibitory constant, Ki; cited from earlier work.
The subject of a further data set is NET. The arrangement: method as in PMID 29410048. To be noted: cited from earlier work.
The target of a further data set is CYP2C19 (Homo sapiens, UniProt P33261). The experiment in a line: CYP P450 inhibition in HLMs (Eurofins Panlabs). It is filed as in vitro ADME. Details: from tissue; host or cells: human liver microsomes (HLMs). To be noted: S-CE-123 10 µM. As to the method:
as §1

The target in another data set is CYP2C9 (Homo sapiens, UniProt P11712). The experiment in a line: CYP P450 inhibition in HLMs (Eurofins Panlabs). The format is in vitro ADME. Details: from tissue; host or cells: human liver microsomes (HLMs). To be noted: microsomes, S-CE-123 10 µM, range given for CYP2C9, CYP1A and CYP2D6 together, read-out: inhibition of control values. As to the method:
as §1

The test system of data set [2] is human isoforms of the DAT. The arrangement: method as in PMID 29230168. To be noted: HEK293 cells; cited from earlier work.
A further data set concerns the target T1, CYP1A (Homo sapiens, UniProt P05177).
T1 construct: from tissue; host or cells: human liver microsomes (HLMs)
T1 sequence (P05177 2-516 limits assumed): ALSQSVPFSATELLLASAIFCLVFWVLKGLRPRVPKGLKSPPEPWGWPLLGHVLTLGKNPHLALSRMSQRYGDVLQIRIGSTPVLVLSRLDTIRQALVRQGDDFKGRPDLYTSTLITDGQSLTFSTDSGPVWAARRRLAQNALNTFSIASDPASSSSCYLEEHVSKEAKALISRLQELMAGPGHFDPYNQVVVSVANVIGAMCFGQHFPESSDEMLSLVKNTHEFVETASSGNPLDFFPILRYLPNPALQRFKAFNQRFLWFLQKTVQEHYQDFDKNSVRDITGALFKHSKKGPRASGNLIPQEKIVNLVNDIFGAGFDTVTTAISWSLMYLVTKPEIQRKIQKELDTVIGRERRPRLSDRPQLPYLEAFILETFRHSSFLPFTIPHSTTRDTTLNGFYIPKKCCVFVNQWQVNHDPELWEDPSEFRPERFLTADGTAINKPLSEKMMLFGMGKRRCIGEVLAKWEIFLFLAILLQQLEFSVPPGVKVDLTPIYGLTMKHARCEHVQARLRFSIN
The data set can be described thus: CYP P450 inhibition in HLMs (Eurofins Panlabs). It is filed as in vitro ADME. To be noted: microsomes, S-CE-123 10 µM, range given for CYP2C9, CYP1A and CYP2D6 together, read-out: inhibition of control values. As for the experimental part: as §1

The next data set addresses T2, CYP2D6 (Homo sapiens, UniProt P10635).
T2 construct: from tissue; host or cells: human liver microsomes (HLMs)
The data set can be described thus: CYP P450 inhibition in HLMs (Eurofins Panlabs). It is filed as in vitro ADME. To be noted: microsomes, S-CE-123 10 µM, range given for CYP2C9, CYP1A and CYP2D6 together, read-out: inhibition of control values. As to the method:
as §1

The target in a further data set is T3, CYP2B6 (Homo sapiens, UniProt P20813).
T3 construct: from tissue; host or cells: human liver microsomes (HLMs)
T3 sequence (P20813 1-491): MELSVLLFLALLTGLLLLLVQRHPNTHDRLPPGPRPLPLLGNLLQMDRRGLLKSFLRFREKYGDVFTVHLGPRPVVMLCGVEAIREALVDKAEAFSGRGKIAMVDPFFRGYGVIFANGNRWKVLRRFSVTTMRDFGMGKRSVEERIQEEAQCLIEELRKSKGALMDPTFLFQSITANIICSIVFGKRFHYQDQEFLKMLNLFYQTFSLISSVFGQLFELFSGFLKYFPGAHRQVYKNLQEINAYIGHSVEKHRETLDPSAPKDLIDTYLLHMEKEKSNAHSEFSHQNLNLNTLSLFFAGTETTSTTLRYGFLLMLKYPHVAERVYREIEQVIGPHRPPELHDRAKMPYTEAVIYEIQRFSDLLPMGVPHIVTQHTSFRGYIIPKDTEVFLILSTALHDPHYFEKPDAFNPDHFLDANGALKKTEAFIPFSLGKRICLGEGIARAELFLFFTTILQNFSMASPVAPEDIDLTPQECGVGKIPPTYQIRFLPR
The data set can be described thus: CYP P450 inhibition in HLMs (Eurofins Panlabs). As to conditions: S-CE-123 10 µM. It is filed as in vitro ADME. As to the method: as §1

Molecules are shown by their SMILES.

T2 sequence (P10635 whole entry): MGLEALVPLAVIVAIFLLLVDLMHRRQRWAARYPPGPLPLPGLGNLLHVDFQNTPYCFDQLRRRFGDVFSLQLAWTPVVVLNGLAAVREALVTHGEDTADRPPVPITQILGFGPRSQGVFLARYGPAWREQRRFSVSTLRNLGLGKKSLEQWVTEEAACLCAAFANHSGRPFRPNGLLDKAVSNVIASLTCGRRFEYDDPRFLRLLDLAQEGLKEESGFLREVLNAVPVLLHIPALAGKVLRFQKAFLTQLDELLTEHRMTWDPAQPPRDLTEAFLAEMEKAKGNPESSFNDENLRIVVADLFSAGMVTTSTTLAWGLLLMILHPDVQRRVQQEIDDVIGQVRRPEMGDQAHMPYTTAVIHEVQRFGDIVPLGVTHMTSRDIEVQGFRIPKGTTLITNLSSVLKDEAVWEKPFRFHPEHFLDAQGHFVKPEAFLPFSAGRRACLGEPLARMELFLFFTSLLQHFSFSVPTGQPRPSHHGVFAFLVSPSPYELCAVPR
Sequence of CYP2C19 (P33261 whole entry): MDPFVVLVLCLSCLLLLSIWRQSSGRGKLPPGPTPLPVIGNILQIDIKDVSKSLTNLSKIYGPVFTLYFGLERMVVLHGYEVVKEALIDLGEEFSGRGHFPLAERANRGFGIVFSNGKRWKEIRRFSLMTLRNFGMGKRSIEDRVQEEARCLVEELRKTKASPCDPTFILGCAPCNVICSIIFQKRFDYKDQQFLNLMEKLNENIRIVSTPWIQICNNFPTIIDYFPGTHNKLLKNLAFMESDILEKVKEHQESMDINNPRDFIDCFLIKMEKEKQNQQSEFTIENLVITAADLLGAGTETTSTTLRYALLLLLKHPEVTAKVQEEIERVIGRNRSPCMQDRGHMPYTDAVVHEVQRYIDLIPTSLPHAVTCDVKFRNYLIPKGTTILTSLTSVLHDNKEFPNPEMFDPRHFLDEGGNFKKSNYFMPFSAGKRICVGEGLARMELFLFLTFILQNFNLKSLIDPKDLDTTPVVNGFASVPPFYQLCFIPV
Sequence of CYP2C9 (P11712 whole entry): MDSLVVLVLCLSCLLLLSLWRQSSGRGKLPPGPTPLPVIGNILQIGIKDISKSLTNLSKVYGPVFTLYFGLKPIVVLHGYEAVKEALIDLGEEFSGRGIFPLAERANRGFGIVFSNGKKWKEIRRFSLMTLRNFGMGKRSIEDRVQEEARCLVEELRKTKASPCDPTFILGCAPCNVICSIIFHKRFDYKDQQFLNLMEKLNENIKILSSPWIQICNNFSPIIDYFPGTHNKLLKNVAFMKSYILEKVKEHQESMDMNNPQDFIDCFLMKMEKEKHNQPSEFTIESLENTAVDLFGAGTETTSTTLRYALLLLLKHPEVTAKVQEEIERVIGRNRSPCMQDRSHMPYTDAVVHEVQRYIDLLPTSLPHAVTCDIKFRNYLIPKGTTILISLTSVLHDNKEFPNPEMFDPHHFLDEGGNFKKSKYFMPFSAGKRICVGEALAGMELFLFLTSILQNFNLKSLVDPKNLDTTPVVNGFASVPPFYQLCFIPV

`NC(=O)C[S@@+]([O-])C(c1ccccc1)c1ccccc1` [R-modafinil, reference compound]: the R-modafinil level remaining entry in [1] (4 h incubation at 37 °C) is on record as “about 50%”. Besides, the metabolized in data set [1] (after 4 h at 37 °C) was found to be 50%.
For `[O-][S@@+](Cc1cncs1)C(c1ccccc1)c1ccccc1` [S-CE-123], the “inhibition of control values” in the data set with CYP3A, at CYP2C19 and against CYP2B6 was “Low inhibition” each time. Moreover, the “activity on SERT” value in the data set on SERT is “negligible activity”. For the same molecule, the Ki on human DAT is 0.61 µM. Moreover, in the data set on NET, the “activity on NET” value is given as “negligible activity”. Also, the inhibition at 10 min, 10 µM at CYP2C9, at CYP1A and at CYP2D6 was 47 to 68% in each case. Moreover, the “fold higher in vitro activity on the DAT than its R-enantiomer” value in [2] was ~8 fold.
